Experiments:
[1] = Test 1 (Pharmacokinetics Study), oral administration to mice, serum drug concentration by HPLC; format: in vivo; settings: male, BDF1, mouse, oral 200 mg/kg, mice fasting for 16 hours, 1-24 hours after administration, read-out: AUC1h-24h
Protocol: Pharmacokinetics study was conducted, using six-week-old BDF1 male mice. Test compound was dissolved in dichloromethane together with hydroxypropyl cellulose (low-molecular weight)(HPC(L)) 2.5 times as much as the drug weight, dried under reduced pressure and was suspended in distilled water so as to have the drug concentration of 20 mg/mL. The test compound was forcedly orally administered to mice fasting for 16 hours with dose of 200 mg/kg. One, two, four, eight and 24 hours after the administration, blood was collected from orbit of two mice to obtain serum 100 μL of the obtained serum was added with internal standard solution and 1 mL of distilled water and then test compound and internal standard substance were extracted from the resulting mixture by diethyl ether. The organic layers were evaporated to dryness under reduced pressure and residues were dissolved in eluent to obtain HPLC measurement sample. The analysis was performed by HPLC with reversed-phase column and the eluent used was acetonitrile-phosphate buffer (pH 2.5). The drug concentration in the test serum was calculated by the calibration curve (Y=aX+b) obtained from standard substance. Area under the curve (AUC1h-24h) was calculated from the drug concentration in the serum, using WinNonlin (produced by the firm Pharsight, ver. 4.01).

Human colon cancer WiDr [2] = test: Test 2 (In Vivo Antitumor Test), subcutaneous WiDr tumor in nude mice; set-up: species or system mutant BALB/c nude mice; key to evaluation: Cases where T/C (%) of the last day was less than 50% and U-assay of Mann-Whitney revealed significant difference with one-sided risk rate of 1% were evaluated to be effective (+); ineffective (−); settings: oral 100 mg/kg once a day, six times a week, for two weeks; for evaluation: T/C of the last day and Mann-Whitney U-assay; for T/C (%): relative tumor growth rate, last day
Protocol: Human colon cancer WiDr was grown as subcutaneous tumor in mutant BALB/c nude mice. 2-mm-cube tumor fragments were transplanted subcutaneously into left flank of the nude mice. When the tumor reached logarithmic growth phase, mice were divided randomly into test groups consisting five mice per group. The samples prepared by dissolving test compound in dichloromethane with a ratio of the test compound to HPC(L) being 1:2.5, dried under reduced pressure and suspended in distilled water. The samples were then orally administered at a rate of test compound 100 mg/kg, once a day and six times a week in total, for two weeks. The length and width of the tumor mass were measured on a daily basis to calculate tumor volume. The tumor volume at each measured day was divided by that at the start day of the sample administration to calculate relative tumor growth rate; and the relative tumor growth rate of the treated groups (T) and that of the control group (C) were used to calculate T/C(%).

Human colon cancer WiDr [3] = test: in vitro antitumor test (50% growth inhibition concentration); format: cell-based
Protocol: This was also supported by the results of Table 3 below showing test results of in vitro antitumor test (comparative tests in 50% growth inhibition concentrations (GI50 μM) to Human colon cancer WiDr).

Structure (SMILES)	melting point [°C]	AUC(0-t) [1] [ng·h/mL]	GI50 (Human colon cancer WiDr [3]) [nM]	evaluation (Human colon cancer WiDr [2])	T/C (%) (Human colon cancer WiDr [2])
COc1cccc2c1nc(C(F)F)n2-c1nc(N2CCOCC2)cc(N2CCO[C@@H](C)[C@H]2C)n1 (relative stereo) [compound 3, 2-(2-difluoromethyl-4-methoxybenzimidazol-1-yl)-4-(cis-2,3-dimethylmorpholino)-6-morpholinopyrimidine]	176 to 178	87000			
COc1cccc2c1nc(C(F)F)n2-c1nc(N2CCOCC2)cc(N2C[C@H](C)O[C@@H](C)C2)n1 (relative stereo) [compound 4, 2-(2-difluoromethyl-4-methoxybenzimidazol-1-yl)-4-(trans-2,6-dimethylmorpholino)-6-morpholinopyrimidine]		138000			
C[C@@H]1OCCN(c2cc(N3CCOCC3)nc(-n3c(C(F)F)nc4c(O)cccc43)n2)[C@@H]1C (relative stereo) [compound C, 2-(2-difluoromethyl-4-hydroxybenzimidazol-1-yl)-4-(cis-2,3-dimethylmorpholino)-6-morpholinopyrimidine, reference compound]		17000			
C[C@H]1CN(c2cc(N3CCOCC3)nc(-n3c(C(F)F)nc4c(O)cccc43)n2)C[C@H](C)O1 (relative stereo) [compound D, 2-(2-difluoromethyl-4-hydroxybenzimidazol-1-yl)-4-(trans-2,6-dimethylmorpholino)-6-morpholinopyrimidine, reference compound]		68000			
COc1cccc2c1nc(C(F)F)n2-c1nc(N2CCOCC2)cc(N2C[C@@H](C)O[C@@H](C)C2)n1 [compound 1, 2-(2-difluoromethyl-4-methoxybenzimidazol-1-yl)-4-(cis-2,6-dimethylmorpholino)-6-morpholinopyrimidine]		332000	450	+ (Cases where T/C (%) of the last day was less than 50% and U-assay of Mann-Whitney revealed significant difference with one-sided risk rate of 1% were evaluated to be effective (+))	35.7
CCOc1cccc2c1nc(C(F)F)n2-c1nc(N2CCOCC2)cc(N2CCOCC2)n1 [compound 8, 2-(2-difluoromethyl-4-ethoxybenzimidazol-1-yl)-4,6-dimorpholinopyrimidine]	188 to 190				
C[C@@H]1CN(c2cc(N3CCOCC3)nc(-n3c(C(F)F)nc4c(O)cccc43)n2)C[C@H](C)O1 [compound A, 2-(2-difluoromethyl-4-hydroxybenzimidazol-1-yl)-4-(cis-2,6-dimethylmorpholino)-6-morpholinopyrimidine]		17000	150	−	78.3
CC1(C)CN(c2cc(N3CCOCC3)nc(-n3c(C(F)F)nc4c(O)cccc43)n2)CCO1 [compound B, 2-(2-difluoromethyl-4-hydroxybenzimidazol-1-yl)-4-(2,2-dimethylmorpholino)-6-morpholinopyrimidine, reference compound]		5000	90	−	88.4

Second part, led by results:

melting point [°C]	AUC(0-t) [1] [ng·h/mL]	GI50 (Human colon cancer WiDr [3]) [nM]	Structure (SMILES)	evaluation (Human colon cancer WiDr [2])	T/C (%) (Human colon cancer WiDr [2])
166 to 168	146000	140	COc1cccc2c1nc(C(F)F)n2-c1nc(N2CCOCC2)cc(N2CCOC(C)(C)C2)n1 [compound 2, 2-(2-difluoromethyl-4-methoxybenzimidazol-1-yl)-4-(2,2-dimethylmorpholino)-6-morpholinopyrimidine]	+ (Cases where T/C (%) of the last day was less than 50% and U-assay of Mann-Whitney revealed significant difference with one-sided risk rate of 1% were evaluated to be effective (+))	28.8
203 to 205			COc1cccc2c1nc(C(F)F)n2-c1nc(N2CCOCC2)cc(N2CCOCC2)n1 [compound 5, 2-(2-difluoromethyl-4-methoxybenzimidazol-1-yl)-4,6-dimorpholinopyrimidine]		
235 to 237			COc1cccc2c1nc(C(F)F)n2-c1nc(N2CCOCC2)nc(N2C[C@@H](C)O[C@@H](C)C2)n1 [compound 6, 2-(2-difluoromethyl-4-methoxybenzimidazol-1-yl)-4-(cis-2,6-dimethylmorpholino)-6-morpholino-1,3,5-triazine]		
209 to 211			COc1cccc2c1nc(C(F)F)n2-c1nc(N2CCOCC2)nc(N2CC(C)(C)OCC2(C)C)n1 [compound 7, 2-(2-difluoromethyl-4-methoxybenzimidazol-1-yl)-4-(2,2,5,5-tetramethylmorpholino)-6-morpholino-1,3,5-triazine]		
114 to 116	88000		CCOc1cccc2c1nc(C(F)F)n2-c1nc(N2CCOCC2)cc(N2CCOC(C)(C)C2)n1 [compound 9, 2-(2-difluoromethyl-4-ethoxybenzimidazol-1-yl)-4-(2,2-dimethylmorpholino)-6-morpholinopyrimidine]		
